Measured values: patent US9187458B2, “Cyanoquinoline derivatives” (Tianjin Hemay Bio-Tech Co., LTD., priority 2010, dated 2015)

Each compound was assayed on BT-474 cells (assay: BT-474 Cell Growth Inhibition Test (SRB Assay)). Details: Homo sapiens, 70 h incubation.
Type: cell-based, human
Description: BT-474 Cell Growth Inhibition Test (SRB Assay)
1. Cell strains: BT-474 (human breast tumor cell strains);
2. SRB: available from Sigmaaldrich, goods number: S9012, lot number: 047K3751. SRB was reserved at the room temperature. 0.4% (w/v) of working solution was formulated with 1% of glacial acetic acid. The solution was reserved at the temperature of 4° C.; anti-tumor compounds; DMSO.
Culture medium (90% EMEM+10% FBS+0.1 mM NEAA, reserved at 4° C.);
1. A plate (10 cm) of cells in logarithmic growth phase normally cultured was collected. The culture solution was sucked out. The plate was washed with 5 mL of PBS 1-2 times;
2. PBS was sucked out, and […] of 0.25% pancreatin was added to infiltrate the cells for 30 s;
3. The pancreatin was sucked out. The culture plate was pleaced in an incubator. Digestion was carried out for about 5 min at 37° C.;
4. 3 mL of complete culture solution was added to the culture plate to stop the digestion. The cells were carefully scoured with micropipette (1 ml) to give a uniform single cell suspension;
5. Cell suspension was counted. The suspension was diluted to 1×10^5/ml. The resulting suspension was developed uniformly on a plate. The plate was incubated under 5% CO2 at 37° C. overnight. In day 2, 80 μL of complete culture medium was added in each well and then 20 μL of culture solution comprising a compound was added. The mixture was incubated for 70 h under 5% CO2 at 37° C.
6. The culture solution was sucked out. 100 uL of TCA fixed cells which were diluted to 10% were added to each well. The plate was kept in a refrigerator for 1 h at 4° C.
7. TCA stationary liquid was sucked out. Each well was washed with 150 μL of ddH2O five times;
8. After the stationary liquid was cleansed, the plate was dried in the air at the room temperature;
9. 60 μL of SRB staining solution was added in each well. The well was stained for 15 min at the room temperature;
10. The SRB staining solution was sucked out. Each well was washed with 150 μL of 1% glacial acetic acid five times;
11. After the SRB staining solution was cleansed, the plate was dried in the air at the room temperature;
12. 100 μL of 10 mM Tris was added in each well. The plate was vibrated to dissolve out SRB;
13. OD values were determined at 570 nM.
(§1) 1. Calculation of Relative Inhibition Ratio The inhibition ratio of a compound on cell growth=(PC−n)/(PC−NC)×100%
IC50: Concentration of a compound where inhibition ratio was 50%. IC50 values were fitted with Origin7.5.
`C#Cc1cccc(Nc2c(C#N)cnc3cc(O[C@H]4CCOC4)c(NC(=O)/C=C/CN(CCOC)CCOC)cc23)c1` [Example 191, (S,E)-N-(3-CYANO-4-(3-ETHYNYLPHENYLAMINO)-7-(TETRAHYDROFURAN-3-YL-OXY)QUINOLIN-6-YL)-4-(DIMETHOXYETHYLAMINO)-BUT-2-ENAMIDE] was tested, and the IC50 was 390 nM.

Same assay, conditions: Homo sapiens, BT-474, 70 h, compound 1 μM, 70 h incubation, read-out: Growth Inhibition Ratio (%)
Work on `Cc1ccc(COc2ccc(Nc3c(C#N)cnc4cc(O[C@H]5CCOC5)c(NC(=O)/C=C/CN(C)C)cc34)cc2Cl)cc1` [Example 167, (S,E)-N-(4-(4-(4-METHYLBENZYLOXY)-3-CHLOROPHENYLAMINO)-3-CYANO-7-(TETRAHYDROFURAN-3-YL-OXY)QUINOLIN-6-YL)-4-(DIMETHYLAMINO)-BUT-2-ENAMIDE] yielded an inhibition at 1 µM of 75%. `COCCN(C/C=C/C(=O)Nc1cc2c(Nc3ccc(OCc4ccccn4)c(Cl)c3)c(C#N)cnc2cc1O[C@H]1CCOC1)CCOC` [Example 203] gave an inhibition at 1 µM of 82%. `CN(C)C/C=C/C(=O)Nc1cc2c(Nc3ccc(OCc4ccccc4C#N)c(Cl)c3)c(C#N)cnc2cc1O[C@H]1CCOC1` [Example 162, (S,E)-N-(4-(4-(2-CYANOBENZYLOXY)-3-CHLOROPHENYLAMINO)-3-CYANO-7-(TETRAHYDROFURAN-3-YL-OXY)QUINOLIN-6-YL)-4-(DIMETHYLAMINO)-BUT-2-ENAMIDE] gave an inhibition at 1 µM of 80%. `N#Cc1cnc2cc(O[C@H]3CCOC3)c(NC(=O)/C=C/CN3CCCCC3)cc2c1Nc1ccc(OCc2cccc(F)c2)c(Cl)c1` [Example 172, (S,E)-N-(4-(4-(3-FLUOROBENZYLOXY)-3-CHLOROPHENYLAMINO)-3-CYANO-7-(TETRAHYDROFURAN-3-YL-OXY)QUINOLIN-6-YL)-4-(PIPERIDIN-1-YL)-BUT-2-ENAMIDE] showed an inhibition at 1 µM of 62%. `N#Cc1cnc2cc(O[C@H]3CCOC3)c(NC(=O)/C=C/CN3CCCCC3)cc2c1Nc1ccc(F)c(Cl)c1` [Example 169, (S,E)-N-(4-(3-CHLORO-4-FLUOROPHENYLAMINO)-3-CYANO-7-(TETRAHYDROFURAN-3-YL-OXY)QUINOLIN-6-YL)-4-(PIPERIDIN-1-YL)-BUT-2-ENAMIDE] was tested, and the inhibition at 1 µM was 80%. `CN(C/C=C/C(=O)Nc1cc2c(Nc3ccc(OCc4cccc(F)c4)c(Cl)c3)c(C#N)cnc2cc1O[C@H]1CCOC1)CCO` [Example 198, (S,E)-N-(3-CYANO-4-(4-(3-FLUOROBENZYLOXY)-3-CHLOROPHENYLAMINO)-7-(TETRAHYDROFURAN-3-YL-OXY)QUINOLIN-6-YL)-4-(N-METHYLETHANOLAMINO)-BUT-2-ENAMIDE] gave an inhibition at 1 µM of 78%. `CCN(CC)C/C=C/C(=O)Nc1cc2c(Nc3ccc(F)c(Cl)c3)c(C#N)cnc2cc1O[C@H]1CCOC1` [Example 168, (S,E)-N-(4-(3-CHLORO-4-FLUOROPHENYLAMINO)-3-CYANO-7-(TETRAHYDROFURAN-3-YL-OXY)QUINOLIN-6-YL)-4-(DIETHYLAMINO)-BUT-2-ENAMIDE] showed an inhibition at 1 µM of 86%. In the case of `N#Cc1cnc2cc(O[C@H]3CCOC3)c(NC(=O)/C=C/CN(CCO)CCO)cc2c1Nc1ccc(F)c(Cl)c1` [Example 192, (S,E)-N-(3-CYANO-4-(3-CHLORO-4-FLUORO-PHENYLAMINO)-7-(TETRAHYDROFURAN-3-YL-OXY)QUINOLIN-6-YL)-4-(DIETHANOLAMINO)-BUT-2-ENAMIDE], the inhibition at 1 µM is reported as 85%. In the case of `N#Cc1cnc2cc(O[C@H]3CCOC3)c(NC(=O)/C=C/CN3CCOCC3)cc2c1Nc1ccc(OCc2cccc(F)c2)c(Cl)c1` [Example 173, (S,E)-N-(4-(4-(3-FLUOROBENZYLOXY)-3-CHLOROPHENYLAMINO)-3-CYANO-7-(TETRAHYDROFURAN-3-YL-OXY)QUINOLIN-6-YL)-4-(MORPHOLIN-4-YL)-BUT-2-ENAMIDE], the inhibition at 1 µM is reported as 67%. `N#Cc1cnc2cc(O[C@H]3CCOC3)c(NC(=O)/C=C/CNCCCCCCO)cc2c1Nc1ccc(F)c(Cl)c1` [Example 205, (S,E)-N-(3-CYANO-4-(3-CHLORO-4-FLUORO-PHENYLAMINO)-7-(TETRAHYDROFURAN-3-YL-OXY)QUINOLIN-6-YL)-4-(6-HYDROXYHEXYLAMINO)-BUT-2-ENAMIDE] was tested, and the inhibition at 1 µM was 75%. For `CCN(CC)C/C=C/C(=O)Nc1cc2c(Nc3ccc(OCc4cccc(F)c4)c(Cl)c3)c(C#N)cnc2cc1O[C@H]1CCOC1` [Example 171, (S,E)-N-(4-(4-(3-FLUOROBENZYLOXY)-3-CHLOROPHENYLAMINO)-3-CYANO-7-(TETRAHYDROFURAN-3-YL-OXY)QUINOLIN-6-YL)-4-(DIETHYLAMINO)-BUT-2-ENAMIDE], the inhibition at 1 µM was 84%. Work on `C#Cc1cccc(Nc2c(C#N)cnc3cc(O[C@H]4CCOC4)c(NC(=O)/C=C/CNCc4ccccc4)cc23)c1` [Example 147, (S,E)-N-(3-CYANO-4-(3-ETHYNYLPHENYLAMINO)-7-(TETRAHYDROFURAN-3-YL-OXY)QUINOLIN-6-YL)-4-(BENZYLAMINO)-BUT-2-ENAMIDE] yielded an inhibition at 1 µM of 75%. `CN(C)C/C=C/C(=O)Nc1cc2c(Nc3cccc(Br)c3)c(C#N)cnc2cc1O[C@H]1CCOC1` [Example 156, (S,E)-N-(4-(3-BROMOPHENYLAMINO)-3-CYANO-7-(TETRAHYDROFURAN-3-YL-OXY)QUINOLIN-6-YL)-4-(DIMETHYLAMINO)-BUT-2-ENAMIDE] was tested, and the inhibition at 1 µM was 70%. `COCCN(C)C/C=C/C(=O)Nc1cc2c(Nc3ccc(OCc4ccccn4)c(Cl)c3)c(C#N)cnc2cc1O[C@H]1CCOC1` [Example 201, (S,E)-N-(3-CYANO-4-(3-CHLORO-4-(PYRIDIN-2-YL-METHOXY)PHENYLAMINO)-7-(TETRAHYDROFURAN-3-YL-OXY)QUINOLIN-6-YL)-4-(N-METHYLMETHOXY ETHYLAMINO)-BUT-2-ENAMIDE] showed an inhibition at 1 µM of 80%.

Same assay, conditions: compound 1 μM, 70 h incubation
With `N#Cc1cnc2cc(O[C@H]3CCOC3)c(NC(=O)/C=C/CN3CCOCC3)cc2c1Nc1ccc(OCc2ccccn2)c(Cl)c1` [Example 186, (S,E/Z)-N-(4-(3-CHLORO-4-(PYRIDIN-2-YL-METHOXY)PHENYLAMINO)-3-CYANO-7-(TETRAHYDROFURAN-3-YL-OXY)QUINOLIN-6-YL)-4-(MORPHOLIN-4-YL)-BUT-2-ENAMIDE] the “Growth Inhibition Ratio (%)” value was 80%. In the case of `CCN(CC)C/C=C/C(=O)Nc1cc2c(Nc3ccc(OCc4ccccn4)c(Cl)c3)c(C#N)cnc2cc1O[C@H]1CCOC1` [Example 184, (S,E/Z)-N-(4-(3-CHLORO-4-(PYRIDIN-2-YL-METHOXY)PHENYLAMINO)-3-CYANO-7-(TETRAHYDROFURAN-3-YL-OXY)QUINOLIN-6-YL)-4-(DIETHYLAMINO)-BUT-2-ENAMIDE], the “Growth Inhibition Ratio (%)” value is reported as 83%.

The compounds below were run on A431 cells (assay: A431 Cell Growth Inhibition Test (MTT Assay)). Details: Homo sapiens, A-431, 68 h, compound 1 μM, 68 h incubation, read-out: Growth Inhibition Ratio (%).
Type: cell-based, human
Description: A431 Cell Growth Inhibition Test (MTT Assay)
1. Cell strains: A431 (human epithelial […] cell strains);
Culture medium: 45% DMEM, 45% F12+10% FBS;
1. A plate (10 cm) of cells in logarithmic growth phase normally cultured was collected;
2. The culture solution was sucked out. The plate was washed with 5 ml of PBS 1-2 times;
3. PBS was sucked out, and 2 ml of 0.25% pancreatin was added to infiltrate the cells for 1 min;
4. The pancreatin was sucked out, and the culture plate was placed in an incubator. Digestion was carried out for about 15 min at 37° C.;
5. 4 ml of complete culture solution was added in the culture plate to stop the digestion. The cells were carefully scoured with micropipette (1 ml) to give a uniform cell suspension. The suspension was implanted into a 96-well cell culture plate by 2500 cells/100 μl per well. The culture plate was incubated overnight under 5% CO2 at 37° C. In day 2, 100 μl of culture solution comprising the compound was added in each well, and further incubated for 68 h under 5% CO2 at 37° C.
6. The culture solution was sucked out;
7. 100 μl of serum-free culture solution containing 0.5 mg/ml MTT was added in each well, and incubated for 4 h;
8. The culture solution was carefully sucked out;
9. 100 μl of DMSO was added into each well and vibrated to dissolve;
10. OD values were determined at 490 nM.
as §1
IC50: concentration of a compound where inhibition ratio was 50%. IC50 values were fitted with Origin7.5.
In the case of `Cc1ccc(COc2ccc(Nc3c(C#N)cnc4cc(O[C@H]5CCOC5)c(NC(=O)/C=C/CN(C)C)cc34)cc2Cl)cc1` [Example 167, (S,E)-N-(4-(4-(4-METHYLBENZYLOXY)-3-CHLOROPHENYLAMINO)-3-CYANO-7-(TETRAHYDROFURAN-3-YL-OXY)QUINOLIN-6-YL)-4-(DIMETHYLAMINO)-BUT-2-ENAMIDE], the inhibition at 1 µM is reported as 75%. `N#Cc1cnc2cc(O[C@H]3CCOC3)c(NC(=O)/C=C/CN3CCCCC3)cc2c1Nc1ccc(OCc2ccccn2)c(Cl)c1` [Example 185, (S,E/Z)-N-(4-(3-CHLORO-4-(PYRIDIN-2-YL-METHOXY)PHENYLAMINO)-3-CYANO-7-(TETRAHYDROFURAN-3-YL-OXY)QUINOLIN-6-YL)-4-(PIPERIDIN-1-YL)-BUT-2-ENAMIDE] showed an inhibition at 1 µM of 70%. Work on `CN(C)C/C=C/C(=O)Nc1cc2c(Nc3ccc(OCc4ccccc4F)c(Cl)c3)c(C#N)cnc2cc1O[C@H]1CCOC1` [Example 157, (S,E)-N-(4-(4-(2-FLUOROBENZYLOXY)-3-CHLOROPHENYLAMINO)-3-CYANO-7-(TETRAHYDROFURAN-3-YL-OXY)QUINOLIN-6-YL)-4-(DIMETHYLAMINO)-BUT-2-ENAMIDE] yielded an inhibition at 1 µM of 72%. With `CN(C)C/C=C/C(=O)Nc1cc2c(Nc3ccc(OCc4ccccc4)cc3)c(C#N)cnc2cc1O[C@H]1CCOC1` [Example 155, (S,E)-N-(4-(4-(BENZYLOXY)PHENYLAMINO)-3-CYANO-7-(TETRAHYDROFURAN-3-YL-OXY)QUINOLIN-6-YL)-4-(DIMETHYLAMINO)-BUT-2-ENAMIDE] the inhibition at 1 µM was 82%.
